These are literature values, as cited in article PMC7207041 (Medicinal chemistry research : an international journal for …, 2020).

One data set concerns Nrf2-regulated proteins. Particulars: WT mice; ref Walsh et al. 2014.
Data set [1] relates to ARE-mediated genes in HepG2 cells. Particulars: read-out: EC50, activation of ARE-mediated genes, ref Hu et al. 2013b.
Data set [2] relates to cultured human kidney cells (HEK293). Conditions: HEK293, 50 and 100 μM; ref Wen et al. 2015.
For data set [3] the following is noted: ref Lazzara et al. 2020.
For data set [4] the following is noted: human liver microsomes; ref Lazzara et al. 2020. A general note: Liver microsomes are a subcellular fraction often used to study metabolism.
The next data set addresses Keap1 Kelch domain. Particulars: read-out: Kd in ITC assay; ref Winkel et al. 2015.
For data set [5] the following is noted: human, mouse, and rat; ref Winkel et al. 2015.
The next data set has as its system GCLC and NQO1. Particulars: mouse, administered together with a cytochrome P450 inhibitor; ref Winkel et al. 2015.
In data set [6] the test system is Keap1-Nrf2 PPI. Particulars: read-out: IC50 in FP assay; ref Jiang et al. 2018.
Data set [7] relates to LPS-induced cardiomyopathy. Particulars: ref Jiang et al. 2018.
Data set [8] deals with Keap1-Nrf2 PPI. Particulars: same FP assay conditions; ref Tran et al. 2019.

As to `COC(=O)[C@]12CCC(C)(C)C[C@H]1[C@H]1C(=O)C=C3[C@@]4(C)C=C(C#N)C(=O)C(C)(C)[C@@H]4CC[C@@]3(C)[C@]1(C)CC2` [CDDO-Me, bardoxolone methyl], the “number of proteins changed by treatment” value in the data set with Nrf2-regulated proteins is 43 proteins.
Usually EC50 stands for the concentration at which the effect is half-maximal. For `O=C(O)[C@H]1CCCC[C@H]1C(=O)N1CCc2ccccc2[C@H]1CN1C(=O)c2ccccc2C1=O` [Compound 1], the EC50 in data set [1] is 18 µM. In addition, in [2], the “HO-1 protein expression enhancement” value was 3.5 fold and the “TRX1 protein expression enhancement” value is on record as 2–4 fold.
In the case of `COc1ccc(S(=O)(=O)N(CC(F)(F)F)c2cnc(N(CC(=O)O)S(=O)(=O)c3ccc(OC)cc3)c3ccccc23)cc1` [Compound 11], the logD7.4 in [3] was 0.5. In addition, the “metabolic stability t1/2” value in [4] was 2.27 h. In addition, in the data set with Nrf2 target genes (compared with 10, ref Lazzara et al. 2020), the “cellular levels of Nrf2 and NQO1 expression” value is listed as “remarkable increase”.
What is called Kd is the constant that tells how readily two partners part at equilibrium. Turning to `Cc1cc(C)c(C)c(S(=O)(=O)Nc2ccc(N3CC[C@H](C(=O)O)C3)c3ccccc23)c1C` [Compound 12], the equilibrium dissociation constant (Kd) on Keap1 Kelch domain was 6 µM. Also, the “metabolic stability in liver microsomes” value in data set [5] is given as “low metabolic stability”. In addition, in the data set on GCLC and NQO1, the “hepatic mRNA levels of GCLC and NQO1” value was “significantly increased”.
The term IC50 denotes the midpoint of a concentration-inhibition curve. In the case of `C=CCOC(=O)/N=c1\oc2cc(N(CC)CC)ccc2cc1-c1nc2ccccc2s1` [Compound 25], the IC50 in the data set on Keap1-Nrf2 PPI [6] is 5.1 µM. Further, the “effect in mouse model of LPS-induced cardiomyopathy” value in data set [7] is listed as “cardiac protective effect”. In addition, the “mRNA levels of Nrf2 target genes (HO-1 and NQO1)” value in the data set on Nrf2 target genes (H9c2 cardiac cells, ref Jiang et al. 2018) is “significant increase”.
Turning to `O=[N+]([O-])c1ccc(Sc2nnc(COc3ccccc3)n2-c2ccccc2)c2ncccc12` [Compound 30], at Keap1-Nrf2 PPI [8], the “Comparative assessment by Bach et. al. FP (Ki μM)” value is reported as “NA (≤77)”. In the data set on Nrf2 target genes (ref Kazantsev et al. 2014), the “expression of Nrf2-responsive proteins NQO1 and GCLM” value is “induced expression”.
